Data as given in the supplement of paper PMC10307832.

Tests used:
Test in all cases: relative viability (nuclei count vs DMSO), 5 days (fraction); higher = more cells survive
[1] = compound: C1=CC=C2C(=C1)N=C(S2)C(C#N)C3=NC(=NC=C3)NCCC4=CN=CC=C4 + N=C(N)NC(=N)NCCc1ccccc1 [Phenformin] (partner 250 µM)
Outline: (§1)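 Nuclei were stained with Hoechst during a one-step fixation (final 0.05% Triton X-100, 1% formaldehyde, 1 ug/ml Hoechst) carried out 5 days after dosing, then counted on 4× images. The cells, lung cancer lines in 1536-well plates, had been dosed by pin tool the day after seeding with one drug alone or a fixed anchor-drug dose plus five library-drug doses (not always all listed) in √10 steps. Relative viability is the nuclei count in treated wells divided by that in vehicle wells, and each value is the median of duplicate plates.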

NVP-TAE684 + Tozasertib = compound: COc1cc(N2CCC(N3CCN(C)CC3)CC2)ccc1Nc1ncc(Cl)c(Nc2ccccc2S(=O)(=O)C(C)C)n1 [NVP-TAE684] + Cc1cc(Nc2cc(N3CCN(C)CC3)nc(Sc3ccc(NC(=O)C4CC4)cc3)n2)n[nH]1 [Tozasertib] (partner 0.1 µM)
Outline: as §1

NVP-TAE684 + Crizotinib = compound: COc1cc(N2CCC(N3CCN(C)CC3)CC2)ccc1Nc1ncc(Cl)c(Nc2ccccc2S(=O)(=O)C(C)C)n1 [NVP-TAE684] + C[C@@H](Oc1cc(-c2cnn(C3CCNCC3)c2)cnc1N)c1c(Cl)ccc(F)c1Cl [Crizotinib] (partner 1 µM)
Outline: as §1

CUDC-101 + Luminespib = compound: C#Cc1cccc(Nc2ncnc3cc(OC)c(OCCCCCCC(=O)NO)cc23)c1 [CUDC-101] + CCNC(=O)c1noc(-c2cc(C(C)C)c(O)cc2O)c1-c1ccc(CN2CCOCC2)cc1 [Luminespib] (partner 0.01 µM)
Outline: as §1

| Cell Line | relative viability ([1]; first compound 0.005 µM) | relative viability ([1]; first compound 0.01581 µM) | relative viability ([1]; first compound 0.05 µM) | relative viability ([1]; first compound 0.1581 µM) | relative viability ([1]; first compound 0.5 µM) | relative viability (NVP-TAE684 + Tozasertib; first compound 0.2 µM) | relative viability (NVP-TAE684 + Tozasertib; first compound 0.6325 µM) | relative viability (NVP-TAE684 + Tozasertib; first compound 2 µM) | relative viability (NVP-TAE684 + Crizotinib; first compound 0.2 µM) | relative viability (NVP-TAE684 + Crizotinib; first compound 0.6325 µM) | relative viability (NVP-TAE684 + Crizotinib; first compound 2 µM) | relative viability (CUDC-101 + Luminespib; first compound 0.01 µM) | relative viability (CUDC-101 + Luminespib; first compound 0.03162 µM) | relative viability (CUDC-101 + Luminespib; first compound 0.1 µM) | relative viability (CUDC-101 + Luminespib; first compound 0.3162 µM) | relative viability (CUDC-101 + Luminespib; first compound 1 µM) |
| --- | --- | --- | --- | --- | --- | --- | --- | --- | --- | --- | --- | --- | --- | --- | --- | --- |
| EMC-BAC-2 | 0.413 | 0.517 | 0.516 | 0.657 | 0.368 | 0.284 | 0.266 | 0.233 | 0.751 | 0.806 | 0.441 | 1.29 | 1.08 | 1.2 | 1.22 | 0.973 |
| NCI-H1437 | 0.298 | 0.3 | 0.345 | 0.339 | 0.223 | 0.433 | 0.396 | 0.311 | 0.818 | 1.06 | 0.795 | 1.27 | 1.06 | 1.12 | 1.21 | 1.19 |
| NCI-H1944 | 0.159 | 0.227 | 0.206 | 0.234 | 0.203 | 0.271 | 0.248 | 0.225 | 1.07 | 1.03 | 0.933 | 0.757 | 0.545 | 0.732 | 0.565 | 0.53 |
| NCI-H838 | 0.326 | 0.573 | 0.527 | 0.717 | 0.39 | 0.311 | 0.233 | 0.226 | 0.962 | 0.78 | 0.522 | 0.302 | 0.248 | 0.228 | 0.251 | 0.218 |
| HCC-827 | 0.376 | 0.455 | 0.358 | 0.46 | 0.422 | 0.462 | 0.41 | 0.715 | 0.914 | 0.907 | 0.868 | 0.531 | 0.241 | 0.278 | 0.217 | 0.197 |
| NCI-H2342 | 0.495 | 0.591 | 0.674 | 0.606 | 0.614 | 0.572 | 0.485 | 0.297 | – | – | – | 0.764 | 0.644 | 0.829 | 0.737 | 0.692 |
| LOU-NH91 | 0.677 | 0.702 | 0.597 | 0.687 | 0.685 | 0.622 | 0.576 | 0.475 | 0.7 | 0.725 | 0.592 | 0.395 | 0.216 | 0.334 | 0.385 | 0.316 |
| NCI-H3122 | 0.393 | 0.37 | 0.364 | 0.44 | 0.35 | 0.156 | 0.091 | 0.118 | 0.243 | 0.216 | 0.179 | 0.118 | 0.0939 | 0.0988 | 0.112 | 0.0815 |
| NCI-H1563 | 0.595 | 0.62 | 0.635 | 0.673 | 0.667 | – | – | – | 0.771 | 0.79 | 0.651 | 0.447 | 0.526 | 0.506 | 0.531 | 0.495 |
| NCI-H1734 | – | 0.44 | 0.375 | 0.471 | 0.392 | 0.283 | 0.261 | 0.196 | – | 0.7 | 0.424 | 0.206 | 0.185 | 0.193 | 0.167 | 0.157 |
| EPLC-272H | 0.225 | 0.243 | 0.275 | 0.286 | 0.311 | 0.25 | 0.21 | 0.103 | 0.898 | – | 0.873 | 0.141 | 0.554 | 0.598 | 0.269 | 0.257 |
| RERF-LC-KJ | 0.396 | 0.447 | 0.403 | 0.442 | 0.377 | 0.469 | 0.488 | 0.268 | 0.948 | 0.781 | 0.792 | 1.36 | 1.3 | 1.25 | 1.18 | 0.794 |
| EBC-1 | – | – | – | – | – | – | – | – | 0.208 | 0.174 | 0.155 | – | – | – | – | – |
| HARA | 0.474 | 0.484 | 0.488 | 0.46 | 0.465 | 0.0965 | 0.0875 | 0.0538 | 1.07 | 1.02 | 0.508 | 0.465 | 0.682 | 0.616 | 0.311 | 0.185 |
| NCI-H1651 | 0.281 | 0.352 | 0.364 | 0.403 | 0.337 | 0.931 | 0.695 | 0.576 | 0.893 | 0.836 | 0.836 | 0.787 | 0.77 | 0.811 | 0.991 | 0.839 |
| NCI-H2405 | 0.362 | 0.364 | 0.358 | 0.455 | 0.407 | 0.742 | 0.664 | 0.35 | 0.828 | – | 0.644 | 0.797 | 0.662 | 0.703 | 0.917 | 0.741 |
| NCI-H596 | 0.557 | 0.848 | 0.687 | 0.921 | 0.801 | 1.17 | 0.883 | 0.861 | 0.974 | 0.886 | 0.717 | 1.12 | 0.936 | 0.923 | 0.927 | 0.972 |
| NCI-H2009 | 0.466 | 0.477 | 0.476 | 0.508 | 0.437 | 0.77 | 0.704 | 0.376 | 1.07 | 0.968 | 0.788 | 1.07 | 0.904 | 1.06 | 1.02 | 0.928 |
| NCI-H2170 | 0.396 | 0.405 | 0.446 | 0.417 | 0.384 | 0.735 | 0.632 | 0.543 | 1.31 | 1.15 | 0.996 | 0.626 | 0.286 | 0.719 | 0.471 | 0.465 |
| NCI-H1648 | – | – | – | – | – | 0.413 | 0.458 | 0.262 | – | – | – | – | – | – | – | – |
| NCI-H1623 | 0.62 | 0.582 | 0.567 | 0.617 | 0.579 | 0.442 | 0.427 | 0.393 | – | – | – | 0.469 | 0.46 | 0.445 | 0.632 | 0.392 |
